Non-standard residues stand in square brackets, D forms with d. No end group written: not given here. Ahx = NCCCCCC(=O)O; βAla = NCCC(=O)O
Each substance was assayed on dystrophin exon 23 (assay: Exon skipping in differentiated mouse H2K mdx myotubes (nested RT-PCR, densitometry)). Conditions: Example 5, conjugate 0.125 to 2.0 μM, no transfection agent.
Assay type: cell-based
Protocol: The exon skipping potential of Pip6-PMO conjugates was evaluated in differentiated mouse H2K mdx myotubes in the absence of any transfection agent (FIG. 1) at concentrations ranging from 0.125 μM to 1 μM. […] In the case of Pip6 sequences, the flanking arginine-rich sequences are identical (with the exception of Pip6e, which is identical except for one arginine immediately preceding the core which is displaced into the second position of the core). […] Note that we have previously shown that major changes in in vitro exon skipping activities are correlated instead with the total numbers of arginine residues [Saleh, A. F., et al., Synthesis and splice-redirecting activity of branched, arginine-rich peptide dendrimer conjugates of peptide nucleic acid oligonucleotides. Bioconjug Chem, 2010. 21(10): p. 1902-11.].
H2K mdx myotubes are derived from H2K mdx myoblasts obtained from the EDL muscle of a male H2K mdx f2 mouse. The cells are dystrophin deficient and conditionally immortal due to thermolabile simian virus 40 large tumor antigen (tsA58) expression. The myoblasts proliferate at 33° C. (10% CO2) in rich culture and differentiate into myotubes at 37° C. in media with horse serum.
H2K mdx myotubes were prepared and incubated with peptide-PNA and peptide-PMO conjugates in the absence of any transfection agent by the methods described previously (Wang, Q, Yin, H, et aL (2010) In vitro evaluation of novel antisense oligonucleotides is predictive of in vivo exon skipping activity for Duchenne muscular dystrophy) but with minor variations.
Myotubes were obtained from confluent H2K mdx cells seeded in gelatine coated 24-well plates following 2 days of serum deprivation (DMEM with 5% horse serum). The conjugates were incubated with myotubes for 4 h in 0.5 mL OptiMEM and then replaced by 1 mL of DMEM/5% horse serum media for further incubation. After 20 h myotubes were washed twice with PBS and total RNA was extracted with 0.5 mL of TRI Reagent (Sigma, UK). RNA preparations were treated with RNAse free DNAse (2U) and Proteinase K ([…]) prior to RT-PCR analysis. RT-PCR was carried out in 25 μL with 1 μg RNA template using SuperScript III One-Step RTPCR System with Platinum Taq DNA polymerase (Invitrogen) primed by forward primer 5′CAG AAT TCT GCC AAT TGC TGAG3′ [SEQ ID NO:312] and reverse primer 5′TTC TTC AGC TTG TGT CAT CC3′ [SEQ ID NO:313]. The initial cDNA synthesis was performed at 55° C. for 30 min followed by 30 cycles of 95° C. for 30 sec, 55° C. for 1 min and 68° C. for 80 sec. RT PCR product ([…]) was then used as the template for secondary PCR performed in 25 μL with 0.5 U Super TAQ polymerase (HT Biotechnologies) and primed by forward primer 5′CCCAGTCTACCACCCTATCAG AGC3′ [SEQ ID NO:314] and reverse primer 5′CCT GCC TTT AAG GCT TCC TT3′ [SEQ ID NO:315]. The cycling conditions were 95° C. for 1 min, 57° C. for 1 min and 72° C. for 80 sec for 25 cycles. Products were examined by 2% agarose gel and after scanning using Gene Tools Analysis Software (SynGene) the relative amount of exon 23 skipping was expressed as a percentage at a given concentration of conjugates averaged over duplicates of three experiments.
H2K mdx myotubes were prepared and incubated with peptide-PMO conjugates in the absence of any transfection agent at concentrations of 0.125, 0.25, 0.5 and 1.0 μM by the method described previously [Yin, H., et al., Pip5 transduction peptides direct high efficiency oligonucleotide-mediated dystrophin exon skipping in heart and phenotypic correction in mdx mice. Mol Ther, 2011. 19(7): p. 1295-303.]. The products of nested RT-PCR from total isolated RNA were examined by electrophoresis on a 2% agarose gel. Quantification of Δ23 transcript levels was calculated using densitometry. […]

| Substance | exon skipping activity (Δ23 skipping) in mdx muscle cells |
| --- | --- |
| Pip9c2: Pip9 series peptide (SEQ ID Nos 320-328) conjugated to PMODMD (R[Ahx]RR[βAla]RRFQILY[βAla]R[Ahx]R[βAla]; also: conjugated to PMO (PMODMD)) | high exon skipping activity |
| Pip8d: Pip8 series peptide (SEQ ID NOs:317-319) conjugated to PMODMD (R[Ahx]RR[βAla]RYQFLI[βAla]R[Ahx]R[βAla]; also: conjugated to PMO (PMODMD)) | high exon skipping activity |
| Pip8a: Pip8 series peptide (SEQ ID NOs:17-20, parent Pip 6a; 9 Arg) conjugated to PMODMD (R[Ahx]RR[βAla]R[Ahx]RYQFLIR[Ahx]RR[βAla]R[βAla]; also: conjugated to PMO (PMODMD)) | high exon skipping activity |
| Pip9c3: Pip9 series peptide (SEQ ID Nos 320-328) conjugated to PMODMD (R[Ahx]RR[βAla]RFQILYRR[βAla]R[βAla]; also: conjugated to PMO (PMODMD)) | high exon skipping activity |

Same assay, conditions: conjugate 0.125 to 1 μM, no transfection agent

| Substance | exon skipping activity (Δ23 skipping) in mdx muscle cells |
| --- | --- |
| Pip8a: Pip8 series peptide (SEQ ID NOs:17-20, parent Pip 6a; 9 Arg) conjugated to PMODMD (R[Ahx]RR[βAla]R[Ahx]RYQFLIR[Ahx]RR[βAla]R[βAla]; also: conjugated to PMO (PMODMD)) | high exon skipping activity |
| Pip7d: Pip7 series peptide (SEQ ID NOs:11-16) conjugated to PMODMD (R[Ahx]R[βAla][Ahx]YRFLI[Ahx]R[βAla]R[Ahx]R[βAla]; also: conjugated to PMO (PMODMD), site not given here) | moderate exon skipping |

From US9302014B2, “Cell-penetrating peptides having a central hydrophobic domain” (Medical Research Council, priority 2011, dated 2016)
